The values below come from patent US7897591B2, “Method of treating fatty liver disease” (priority 2005, dated 2011).

The structures appear in SMILES notation.

Format in all cases: in vivo, mouse
In one data set the test system is C57BL/6 mice. Nature of the data set: General observations: survival, stool, body weight, macroscopic liver appearance and weight. The method, then:
Experiments were performed on 5-6 week-old C57BL/6 mice (Jackson Laboratories, Bar Harbor, Me.). The animals, in groups of five, were housed in a barrier room and were acclimated to their environment for at least 72 hours prior to the initiation of each experiment. Animal protocols complied with the NIH Animal Research Advisory Committee guidelines and were approved by the Children's Hospital Boston Animal Care and Use Committee.
(§1) Control animals (n=5) received normal chow and water ad libitum. All animals in the experimental groups were fed a fat-free, high carbohydrate liquid diet (HCD) ad libitum placed in one bottle per cage as previously described (3, 62). No additional sources of nutrition or hydration were provided. The HCD liquid solution contained 20% dextrose, a commercial mixture of 2% essential and nonessential amino acids (TrophAmine, B. Braun Medical, Irvine, Calif.), 2 ml trace elements (Trace Elements Injection 4, USP—Pediatric, American Regent Shirley, N.Y.), and 5 ml multivitamins (M.V.I. Pediatric™, Mayne Pharma, Paramus, N.J.). Each liter of HCD contained 30 meq sodium, 20 meq potassium chloride, 15 meq calcium, 10 meq magnesium, and 10 mM phosphate. The bottles were replaced daily with fresh HCD solution. HCD animals (n=5) received HCD only and no additional treatment for 19 days. The HCD+MAR animals (n=15) additionally received 100 mg/kg of Marimastat™ in 0.45% methylcellulose (Sigma-Aldrich Corporation, St. Louis, Mo.) vehicle twice daily via orogastric gavage. The animals were individually weighed every third day and at sacrifice.
We then performed a midline laparotomy to observe, excise, and weigh the liver. Approximately one half of the liver was fixed in 10% formalin at 4° C. overnight, washed with phosphate buffered saline, and then embedded in paraffin. After cutting 5 μm sections, slides were stained at the Department of Pathology, Children's Hospital Boston with H&E to examine cellular architecture and lipid accumulation, and with periodic acid-Schiff (PAS) to identify the presence of glycogen.

Data set [1] concerns PPAR-α. Nature of the data set: Immunoprecipitation and SDS-PAGE of PPAR-α phosphorylation. Conditions: HCD+MAR group vs control and HCD-only. As to the method:
as §1, with “sacrifice. Immunoprecipitation was performed according to the Protein-G Immunoprecipitation Kit (Sigma-Aldrich Corporation, St. Louis, Mo.) protocol. […] The sample was then centrifuged and the supernatant was, analyzed by SDS-PAGE as detailed above.” for “sacrifice.”

The next data set has as its system SREBP-1c. Nature of the data set: Western blot of liver SREBP-1c. Conditions: across the treatment groups. As to the method: as §1, with “sacrifice. […] The assay was read at 595 nm and analyzed with Softmax® PRO Software (Molecular Devices Corporation, Sunnyvale, Calif.). 30 ug of protein per sample were analyzed by SDS-PAGE. […]” for “sacrifice.”
In general terms: In western blotting, separated proteins are transferred to a membrane and probed.

Data set [2] has as its system PPAR-α. Nature of the data set: Western blot densitometry of liver PPAR-α. Conditions: HCD+MAR mice; nuclear + cytosolic summed; mean±SEM; P<0.02 vs HCD-only (11.5±4.4). As to the method:
as §1, with “sacrifice. […] The assay was read at 595 nm and analyzed with Softmax® PRO Software (Molecular Devices Corporation, Sunnyvale, Calif.). 30 ug of protein per sample were analyzed by SDS-PAGE. […]” for “sacrifice.”

For the compound `CNC(=O)[C@@H](NC(=O)[C@H](CC(C)C)[C@H](O)C(=O)NO)C(C)(C)C` [Marimastat], in the data set on C57BL/6 mice (19 day protocol), the survival result was “All animals survived”. Besides, the liver weight result with C57BL/6 mice (mouse, in vivo) is “no significant difference”. Moreover, the “stool / bowel integrity” value in the data set with C57BL/6 mice (mouse, in vivo, 100 mg/kg) is “soft stool without gross signs of loss of bowel integrity”. For the same compound, the “phosphorylation of PPAR-α” value in the data set on PPAR-α [1] is given as “marked increase”. Further, the SREBP-1c protein level result with SREBP-1c is listed as “unchanged”. The “PPAR-α level, Western blot densitometry” value with PPAR-α [2] was 151.7±3.4.
